This is an account of results in ChEMBL document CHEMBL4354882, “Selective Janus Kinase 2 (JAK2) Pseudokinase Ligands with a Diaminotriazole Core” (J Med Chem, 2020).

Chain of Tyrosine-protein kinase JAK2 (Homo sapiens, UniProt O60674, V617F) (O60674 whole entry V617F, the tested form may be a part): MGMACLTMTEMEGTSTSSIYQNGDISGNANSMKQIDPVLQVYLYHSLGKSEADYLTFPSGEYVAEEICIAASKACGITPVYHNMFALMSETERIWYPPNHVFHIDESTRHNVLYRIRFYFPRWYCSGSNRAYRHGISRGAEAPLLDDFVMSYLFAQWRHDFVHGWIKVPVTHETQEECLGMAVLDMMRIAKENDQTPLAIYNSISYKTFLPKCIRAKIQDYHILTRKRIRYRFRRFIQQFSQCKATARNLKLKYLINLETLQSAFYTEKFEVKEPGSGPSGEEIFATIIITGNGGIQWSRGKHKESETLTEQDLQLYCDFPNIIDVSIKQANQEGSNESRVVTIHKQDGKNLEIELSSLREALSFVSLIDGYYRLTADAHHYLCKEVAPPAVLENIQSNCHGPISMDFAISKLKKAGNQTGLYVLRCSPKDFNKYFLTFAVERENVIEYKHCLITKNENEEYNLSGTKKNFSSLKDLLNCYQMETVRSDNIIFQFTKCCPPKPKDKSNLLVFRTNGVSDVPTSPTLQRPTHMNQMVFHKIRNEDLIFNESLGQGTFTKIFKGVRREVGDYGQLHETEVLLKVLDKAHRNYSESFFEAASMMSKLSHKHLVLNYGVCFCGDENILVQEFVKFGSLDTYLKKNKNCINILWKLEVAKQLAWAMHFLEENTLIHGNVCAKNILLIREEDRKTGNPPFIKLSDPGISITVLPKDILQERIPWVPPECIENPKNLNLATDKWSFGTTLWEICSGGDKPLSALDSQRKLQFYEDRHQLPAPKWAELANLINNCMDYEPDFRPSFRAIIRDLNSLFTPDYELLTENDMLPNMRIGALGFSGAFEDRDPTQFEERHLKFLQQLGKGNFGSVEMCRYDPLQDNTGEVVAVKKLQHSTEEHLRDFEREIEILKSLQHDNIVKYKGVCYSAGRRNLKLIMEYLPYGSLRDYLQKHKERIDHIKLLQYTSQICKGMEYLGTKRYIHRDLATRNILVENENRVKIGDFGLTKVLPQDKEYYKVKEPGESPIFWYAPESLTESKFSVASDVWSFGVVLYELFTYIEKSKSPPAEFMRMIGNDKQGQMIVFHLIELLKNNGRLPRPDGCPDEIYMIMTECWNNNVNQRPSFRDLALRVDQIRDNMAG

One assay deals with T1, Tyrosine-protein kinase JAK2 (Homo sapiens, UniProt O60674). Description: Binding affinity to human C-terminal His8-tagged JAK2 pseudokinase (513 to 827 residues) expressed in baculovirus infected Hi-5 cells by intrinsic tryptophan fluorescence assay.
T1 sequence (O60674 whole entry, the tested form may be a part): as the sequence (O60674 whole entry V617F, the tested form may be a part) above, with F617V counted along it
`CC(C)CCN1c2nc(Nc3cc(F)c(O)c(F)c3)ncc2N(C)C(=O)C1C` (stereo not drawn) registered a Kd of 0.62 µM.

The target of another assay is T1, Tyrosine-protein kinase JAK2. Details: species or system Sf9.
`Nc1nc(Nc2ccc(S(N)(=O)=O)cc2)nn1Cc1c(F)cccc1F` came in with a Kd of 16.7 µM. `N#Cc1ccc(Nc2nc(N)n(C(=O)Nc3cccc(OCC(=O)O)c3)n2)cc1` had a Kd of 4 µM.

`Nc1nc(Nc2ccc(S(N)(=O)=O)cc2)nn1C(=O)Nc1ccc(-c2ccc(C(=O)O)o2)cc1` gave a Kd of 0.439 µM. In turn, `Nc1nc(Nc2ccc(S(N)(=O)=O)cc2)nn1C(=O)Nc1cccnc1` returned a Kd of 12.3 µM. In the case of `Nc1nc(Nc2ccc(S(N)(=O)=O)cc2)nn1C(=O)Nc1ccccn1`, the Kd came to 30.5 µM.

As to `Nc1nc(Nc2ccc(S(N)(=O)=O)cc2)nn1C(=O)Nc1ccccc1`, the affinity, expressed as Kd, was 4.7 µM. The same measure, in the same setting: to `COC(=O)COc1ccc(NC(=O)n2nc(Nc3ccc(S(N)(=O)=O)cc3)nc2N)cc1` belongs 1.9 µM. Still for that read-out and setting: to `Nc1nc(Nc2ccc(S(N)(=O)=O)cc2)nn1C(=O)Nc1ccc(-c2nnc(C(=O)O)o2)cc1` belongs 7 µM; to `CN(C(=O)n1nc(Nc2ccc(S(N)(=O)=O)cc2)nc1N)c1ccccc1`, 47.8 µM. Take `CC(C)CCN1c2nc(Nc3cc(F)c(O)c(F)c3)ncc2N(C)C(=O)C1C` (stereo not drawn): binding was characterised by a dissociation constant (Kd) of 2 µM.

A further assay shares this target. The assay can be described thus: Binding affinity to wild type 6XHis-tagged human JAK2 JH2 domain (513 to 827 residues) expressed in baculovirus infected Sf9 cells by MANT-ATP binding assay.
As to `Nc1ncnc2c1ncn2[C@@H]1O[C@H](COP(=O)(O)OP(=O)(O)OP(=O)(O)O)[C@@H](O)[C@H]1O` [ADENOSINE TRIPHOSPHATE], the Kd came to 1.3 µM.

A further assay concerns the target Tyrosine-protein kinase JAK2 (Homo sapiens, UniProt O60674, V617F). The assay can be described thus: Binding affinity to 6XHis-tagged human JAK2 JH2 domain V617F mutant (513 to 827 residues) expressed in baculovirus infected Sf9 cells by MANT-ATP binding assay.
In turn, `Nc1ncnc2c1ncn2[C@@H]1O[C@H](COP(=O)(O)OP(=O)(O)OP(=O)(O)O)[C@@H](O)[C@H]1O` [ADENOSINE TRIPHOSPHATE] registered a Kd of 1.3 µM.
